Reference: US7026281B1, “Antagonistic analogs of GH-RH inhibiting IGF-I and -II” (The Administrators of the Tulane Educational Fund, priority 1998, dated 2006)
Square brackets hold non-standard residues; d marks the D form. Peptide text beside a SMILES is read from it. * marks the point of attachment. Phe(4-Cl) = N[C@@H](Cc1ccc(Cl)cc1)C(=O)O; Nle = CCCC[C@H](N)C(=O)O; Abu = CC[C@H](N)C(=O)O; PhAc = O=C(Cc1ccccc1)*

Columns and labels:
[1] = target: T1, rat pituitary GH-RH receptors (Rattus norvegicus, UniProt Q02644); experiment: GH-RH radioreceptor binding assay, rat anterior pituitary membrane homogenates; conditions: for Ki: competition with [His1,125I-Tyr10,Nle27]hGH-RH(1–32)NH2; for R.A. (relative affinity compared to Standard antagonist): ratio of Ki values
T1 construct: from tissue; host or cells: anterior pituitary of male Sprague-Dawley rats, crude membrane homogenates
T1 sequence (Q02644 23-464): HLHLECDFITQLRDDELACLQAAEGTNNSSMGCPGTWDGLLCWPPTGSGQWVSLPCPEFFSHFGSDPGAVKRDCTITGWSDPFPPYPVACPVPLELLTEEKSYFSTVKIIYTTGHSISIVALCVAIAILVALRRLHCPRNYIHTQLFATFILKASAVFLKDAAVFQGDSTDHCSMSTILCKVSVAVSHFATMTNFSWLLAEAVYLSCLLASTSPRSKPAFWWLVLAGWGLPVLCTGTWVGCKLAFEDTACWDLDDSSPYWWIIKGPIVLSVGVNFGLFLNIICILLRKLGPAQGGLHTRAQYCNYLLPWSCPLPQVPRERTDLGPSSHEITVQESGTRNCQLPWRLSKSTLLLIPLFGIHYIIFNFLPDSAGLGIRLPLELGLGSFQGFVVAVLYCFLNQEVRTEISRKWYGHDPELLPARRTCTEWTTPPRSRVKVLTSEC
Procedure: GH-RH Binding Assay. A sensitive radioreceptor binding assay was developed to determine the binding characteristics of the antagonists of GH-RH (G. Halmos, A. V. Schally et al., Receptor 3, 87–97, 1993), hereby incorporated by reference. The assay is based on binding of labelled [His^1,Nle^27]hGH-RH(1–32)NH2 to rat anterior pituitary membrane homogenates. Iodinated derivatives of [His^1,Nle^27]hGH-RH(1–32)NH2 are prepared by the chloramine-T method (F. C. Greenwood et al., Biochemistry 89:114–123, 1963), hereby incorporated by reference. Pituitaries from male Sprague-Dawley rats (250–300 g) are used to prepare crude membranes. For saturation binding analyses, membrane homogenates are incubated with at least 6 concentrations of [His^1,^125I-Tyr^10,Nle^27]hGH-RH(1–32) NH2, ranging from 0.005 to 0.35 nM in the presence or absence of excess unlabelled peptide (1 μM).
The pellet is counted for radioactivity in a γ-counter. The affinities of the antagonist peptides tested to rat pituitary GH-RH receptors are determined in competitive binding experiments. The final binding affinities are estimated by Ki (dissociation constant of the inhibitor-receptor complex) and are determined by the Ligand PC and McPherson computer programs of Munson and Rodbard (P. J. Munson and D. Rodbard, Anal. Biochem. 107. 220–239, 1980). Relative affinities compared to [Ac-Tyr^1,D-Arg^2]hGH-RH(1–29)NH2, the Standard antagonist, are calculated as the […].

[2] = tested on: hGH-RH(1–29)NH2 induced GH release; experiment: Inhibition of GH release in superfused rat pituitary system; assay type: cell-based; conditions: for Inhibition of GH release (%) 30 min: 1 nM hGH-RH(1–29)NH2 30 min later; for Inhibition of GH release (%) 60 min: 1 nM hGH-RH(1–29)NH2 60 min later; for Inhibition of GH release (%) 0 min: 1 nM hGH-RH(1–29)NH2 at 0 min
Procedure: Superfused Rat Pituitary System.
The analogs were tested in vitro in a test described earlier (S. Vigh and A. V. Schally, Peptides 5:241–347, 1984) with modification (Z. Rekasi and A. V. Schally, P.N.A.S. 90:2146–2149, 1993).
Briefly, the cells are preincubated with peptides for 9 minutes (3 mL) at various concentrations. Immediately after the incubation, 1 nM hGH-RH(1–29)NH2 is administered for 3 minutes (1 mL) [0 minute response]. To check the duration of the antagonistic effect of the analogue, 1 nM hGH-RH(1–29)NH2 is applied 30, 60, 90, and 120 minutes later for 3 minutes [30, 60, 90, 120 min responses]. Net integral values of the GH responses are evaluated. GH responses are compared to and expressed as percent of the original GH response induced by 1 nM GH-RH(1–29)NH2. The effect of the new antagonists are compared to that of [Ac-Tyr^1,D-Arg^2]hGH-RH(1–29)NH2, the “Standard antagonist”.
Growth Hormone Radio-immunoassay.
Rat GH levels in aliquots of undiluted and diluted superfusion samples were measured by double-antibody radioimmunoassay using materials supplied by the National Hormone and Pituitary Program, Baltimore, Md. The results of RIA were analyzed with a computer program developed in our institute (V. Csernus and A. V. Schally, in Neuroendocrine Research Methods, Harwood Academic (Greenstein, B. D. ed., London, pp. 71–109, 1991), hereby incorporated by reference. Inter-assay variation was less than 15% and intra-assay variation was less than 10%.

Row | SMILES | Ki [1] [nM] | R.A. (relative affinity compared to Standard antagonist) [1] | Inhibition of GH release (%) 30 min ([2]; antagonist 30 nM) [%] | Inhibition of GH release (%) 60 min ([2]; antagonist 30 nM) [%] | Inhibition of GH release (%) 90 min ([2]; antagonist 30 nM, 1 nM hGH-RH(1–29)NH2 90 min later) [%] | Inhibition of GH release (%) 120 min ([2]; antagonist 30 nM, 1 nM hGH-RH(1–29)NH2 120 min later) [%] | Inhibition of GH release (%) 0 min ([2]; antagonist 30 nM) [%] | Inhibition of GH release (%) 30 min ([2]; antagonist 100 nM) [%] | Inhibition of GH release (%) 60 min ([2]; antagonist 100 nM) [%] | Inhibition of GH release (%) 0 min ([2]; antagonist 100 nM) [%]
1 | CCCC[C@H](NC(=O)[C@H](CC(N)=O)NC(=O)[C@@H](NC(=O)[C@H](Cc1ccc(Cl)cc1)NC(=O)[C@@H](NC(=O)[C@H](C)NC(=O)[C@H](CC(=O)O)NC(=O)[C@@H](CCCNC(=N)N)NC(=O)[C@H](Cc1ccc(O)cc1)NC(=O)Cc1ccccc1)[C@@H](C)CC)[C@@H](C)O)C(=O)N[C@@H](Cc1ccc(O)cc1)C(=O)N[C@@H](CCCNC(=N)N)C(=O)N[C@@H](CCCCN)C(=O)N[C@H](C(=O)N[C@@H](CC(C)C)C(=O)N[C@@H](CC)C(=O)N[C@@H](CCC(N)=O)C(=O)N[C@@H](CC(C)C)C(=O)N[C@@H](CO)C(=O)N[C@@H](C)C(=O)N[C@@H](CCCNC(=N)N)C(=O)N[C@@H](CCCCN)C(=O)N[C@@H](CC(C)C)C(=O)N[C@@H](CC(C)C)C(=O)N[C@@H](CCC(N)=O)C(=O)N[C@@H](CC(=O)O)C(=O)N[C@H](C(=O)N[C@@H](CCCC)C(=O)N[C@@H](CO)C(=O)N[C@H](CCCNC(=N)N)C(N)=O)[C@@H](C)CC)C(C)C [Peptide 12, [PhAc^0, D-Arg^2, Phe(pCl)^6, Nle^9, Abu^15, Nle^27, D-Arg^29]hGH-RH(1–29)NH2] (PhAc-Y[dR]DAI[Phe(4-Cl)]TN[Nle]YRKVL[Abu]QLSARKLLQDI[Nle]S[dR]-NH2) | 0.07 | 42 | 75 | 48 | 52 | 52 | 68 | – | – | –
2 | CC[C@H](C)[C@H](NC(=O)[C@H](C)NC(=O)[C@H](CC(=O)O)NC(=O)[C@@H](CCCNC(=N)N)NC(=O)[C@H](Cc1ccc(O)cc1)NC(C)=O)C(=O)N[C@@H](Cc1ccccc1)C(=O)N[C@H](C(=O)N[C@@H](CC(N)=O)C(=O)N[C@@H](CO)C(=O)N[C@@H](Cc1ccc(O)cc1)C(=O)N[C@@H](CCCNC(=N)N)C(=O)N[C@@H](CCCCN)C(=O)N[C@H](C(=O)N[C@@H](CC(C)C)C(=O)NCC(=O)N[C@@H](CCC(N)=O)C(=O)N[C@@H](CC(C)C)C(=O)N[C@@H](CO)C(=O)N[C@@H](C)C(=O)N[C@@H](CCCNC(=N)N)C(=O)N[C@@H](CCCCN)C(=O)N[C@@H](CC(C)C)C(=O)N[C@@H](CC(C)C)C(=O)N[C@@H](CCC(N)=O)C(=O)N[C@@H](CC(=O)O)C(=O)N[C@H](C(=O)N[C@@H](CCSC)C(=O)N[C@@H](CO)C(=O)N[C@@H](CCCNC(=N)N)C(N)=O)[C@@H](C)CC)C(C)C)[C@@H](C)O [Standard antagonist, [Ac-Tyr^1,D-Arg^2]hGH-RH(1–29)NH2, reference compound] (Ac-Y[dR]DAIFTNSYRKVLGQLSARKLLQDIMSR-NH2) | 2.94 | 1 | – | – | – | – | – | 2.5 | 19 | 62.1
